Like-named read-outs stand apart in the source and are kept apart here.
Key:
Assay in all cases: KinomeScan kinase profiling
Type in all cases: binding
CLK3 = target: T1, CLK3 (Homo sapiens, UniProt P49761)
T1 construct: purchased Ambit Biosciences (San Diego, Calif.)
From the text: (§1) The selectivity of a given CK1δ, CK1ε or CK1δ-CK1ε inhibitor compound can be determined by testing the compound against a panel of known kinases. An example of such a kinase profiling technology is the “KinomeScan” from Ambit Biosciences in which compounds can be screened for their modulatory activities against more than 200 known kinases.

TTK = target: T2, TTK (Homo sapiens, UniProt P33981)
T2 construct: purchased Ambit Biosciences
T2 sequence (P33981 whole entry): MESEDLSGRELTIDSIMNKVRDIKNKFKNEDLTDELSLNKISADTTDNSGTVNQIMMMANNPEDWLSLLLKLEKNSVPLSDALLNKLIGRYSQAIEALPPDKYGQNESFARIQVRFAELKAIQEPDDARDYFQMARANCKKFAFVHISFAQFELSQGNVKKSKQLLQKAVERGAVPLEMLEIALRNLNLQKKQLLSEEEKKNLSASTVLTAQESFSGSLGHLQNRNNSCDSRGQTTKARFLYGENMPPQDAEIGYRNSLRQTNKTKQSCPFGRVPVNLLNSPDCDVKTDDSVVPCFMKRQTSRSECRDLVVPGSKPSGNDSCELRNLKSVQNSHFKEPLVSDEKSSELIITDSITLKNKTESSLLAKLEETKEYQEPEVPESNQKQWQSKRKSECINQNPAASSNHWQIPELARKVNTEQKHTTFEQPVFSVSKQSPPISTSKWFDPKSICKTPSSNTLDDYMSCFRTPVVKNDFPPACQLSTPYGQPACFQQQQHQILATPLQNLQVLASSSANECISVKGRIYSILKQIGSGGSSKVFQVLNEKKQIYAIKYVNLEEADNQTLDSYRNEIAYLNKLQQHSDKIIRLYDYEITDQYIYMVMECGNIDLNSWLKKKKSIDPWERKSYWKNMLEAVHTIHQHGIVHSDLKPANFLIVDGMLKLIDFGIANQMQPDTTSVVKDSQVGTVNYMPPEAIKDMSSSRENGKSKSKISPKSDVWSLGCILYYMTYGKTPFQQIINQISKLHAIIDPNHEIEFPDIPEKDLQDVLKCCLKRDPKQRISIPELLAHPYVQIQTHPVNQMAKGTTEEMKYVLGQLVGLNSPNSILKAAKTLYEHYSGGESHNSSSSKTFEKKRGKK
From the text: as §1

PAK7/PAK5 = target: T3, PAK7/PAK5 (Homo sapiens, UniProt Q9P286)
T3 construct: purchased Ambit Biosciences (San Diego, Calif.)
From the text: as §1

CLK4 = target: T4, CLK4 (Homo sapiens, UniProt Q9HAZ1)
T4 construct: purchased Ambit Biosciences (San Diego, Calif.)
From the text: as §1

PDGFRA = target: T5, PDGFRA (Homo sapiens, UniProt P16234)
T5 construct: purchased Ambit Biosciences (San Diego, Calif.)
From the text: as §1

GAK = target: T6, GAK (Homo sapiens, UniProt O14976)
T6 construct: purchased Ambit Biosciences (San Diego, Calif.)
From the text: as §1

CSNK1G1 = target: T7, CSNK1G1 (Homo sapiens, UniProt Q9HCP0)
T7 construct: purchased Ambit Biosciences (San Diego, Calif.)
From the text: as §1

CAMKK1 = target: T8, CAMKK1 (Homo sapiens, UniProt Q8N5S9)
T8 construct: purchased Ambit Biosciences (San Diego, Calif.)
From the text: as §1

CSNK1G2 = target: T9, CSNK1G2 (Homo sapiens, UniProt P78368)
T9 construct: purchased Ambit Biosciences (San Diego, Calif.)
From the text: as §1

FGFR1 = target: T10, FGFR1 (Homo sapiens, UniProt P11362)
T10 construct: purchased Ambit Biosciences (San Diego, Calif.)
From the text: as §1

ACK1 = target: T11, ACK1 (Homo sapiens, UniProt Q07912)
T11 construct: purchased Ambit Biosciences (San Diego, Calif.)
T11 sequence (Q07912 whole entry): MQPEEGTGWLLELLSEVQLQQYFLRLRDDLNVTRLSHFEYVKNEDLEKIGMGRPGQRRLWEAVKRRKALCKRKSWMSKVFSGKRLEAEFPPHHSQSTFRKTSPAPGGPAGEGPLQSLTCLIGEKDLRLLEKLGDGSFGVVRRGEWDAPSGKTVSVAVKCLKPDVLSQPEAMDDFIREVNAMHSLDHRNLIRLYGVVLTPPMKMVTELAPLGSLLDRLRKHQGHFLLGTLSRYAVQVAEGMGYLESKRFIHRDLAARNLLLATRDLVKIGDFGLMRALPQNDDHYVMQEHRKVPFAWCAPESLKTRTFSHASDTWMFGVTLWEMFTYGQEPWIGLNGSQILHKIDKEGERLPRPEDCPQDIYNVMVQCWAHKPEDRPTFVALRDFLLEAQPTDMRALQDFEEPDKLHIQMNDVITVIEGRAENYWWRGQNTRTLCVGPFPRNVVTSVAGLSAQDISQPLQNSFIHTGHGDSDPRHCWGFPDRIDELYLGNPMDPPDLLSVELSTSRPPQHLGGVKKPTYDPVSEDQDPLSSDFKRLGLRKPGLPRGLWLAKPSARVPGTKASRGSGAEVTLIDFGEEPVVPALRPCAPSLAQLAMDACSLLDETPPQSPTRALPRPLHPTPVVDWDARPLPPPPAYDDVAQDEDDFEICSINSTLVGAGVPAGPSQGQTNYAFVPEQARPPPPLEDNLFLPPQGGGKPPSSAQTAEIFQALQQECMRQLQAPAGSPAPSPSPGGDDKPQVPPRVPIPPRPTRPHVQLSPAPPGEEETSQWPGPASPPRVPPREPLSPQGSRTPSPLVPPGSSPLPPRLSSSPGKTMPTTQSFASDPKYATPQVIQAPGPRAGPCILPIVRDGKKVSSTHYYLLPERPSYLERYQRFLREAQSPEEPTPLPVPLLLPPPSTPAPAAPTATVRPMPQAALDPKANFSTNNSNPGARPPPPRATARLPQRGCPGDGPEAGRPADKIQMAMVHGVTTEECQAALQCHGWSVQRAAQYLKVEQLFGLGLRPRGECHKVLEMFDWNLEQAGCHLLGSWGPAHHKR
From the text: as §1

FLT4 = target: T12, FLT4 (Homo sapiens, UniProt P35916)
T12 construct: purchased Ambit Biosciences (San Diego, Calif.)
From the text: as §1

PAK1 = target: T13, PAK1 (Homo sapiens, UniProt Q13153)
T13 construct: purchased Ambit Biosciences (San Diego, Calif.)
From the text: as §1

EGFR = target: T14, EGFR (Homo sapiens, UniProt P00533)
T14 construct: purchased Ambit Biosciences (San Diego, Calif.)
From the text: as §1

CAMK2B = target: T15, CAMK2B (Homo sapiens, UniProt Q13554)
T15 construct: purchased Ambit Biosciences (San Diego, Calif.)
From the text: as §1

FRK = target: T16, FRK (Homo sapiens, UniProt P42685)
T16 construct: purchased Ambit Biosciences (San Diego, Calif.)
From the text: as §1

INSR = target: T17, INSR (Homo sapiens, UniProt P06213)
T17 construct: purchased Ambit Biosciences (San Diego, Calif.)
From the text: as §1

PIM2 = target: T18, PIM2 (Homo sapiens, UniProt Q9P1W9)
T18 construct: purchased Ambit Biosciences (San Diego, Calif.)
From the text: as §1

JAK1(Kin.Dom1) = target: T19, JAK1(Kin.Dom1) (Homo sapiens, UniProt P23458)
T19 construct: JAK1(Kin.Dom1); purchased Ambit Biosciences (San Diego, Calif.)
T19 sequence (P23458 583-855 limits assumed): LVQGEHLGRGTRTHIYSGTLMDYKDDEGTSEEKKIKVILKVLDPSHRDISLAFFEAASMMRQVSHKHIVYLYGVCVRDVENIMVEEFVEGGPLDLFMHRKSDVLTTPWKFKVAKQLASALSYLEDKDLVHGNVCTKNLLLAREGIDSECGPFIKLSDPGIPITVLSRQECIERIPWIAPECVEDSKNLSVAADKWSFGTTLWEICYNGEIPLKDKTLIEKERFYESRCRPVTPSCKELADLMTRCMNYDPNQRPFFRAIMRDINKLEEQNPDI
From the text: as §1

ABL1 = target: T20, ABL1 (Homo sapiens, UniProt P00519)
T20 construct: purchased Ambit Biosciences (San Diego, Calif.)
From the text: as §1

STK17A = target: T21, STK17A (Homo sapiens, UniProt Q9UEE5)
T21 construct: purchased Ambit Biosciences
From the text: as §1

EPHA4 = target: T22, EPHA4 (Homo sapiens, UniProt P54764)
T22 construct: purchased Ambit Biosciences (San Diego, Calif.)
From the text: as §1

PKMYT1 = target: T23, PKMYT1 (Homo sapiens, UniProt Q99640)
T23 construct: purchased Ambit Biosciences (San Diego, Calif.)
From the text: as §1

NEK9 = target: T24, NEK9 (Homo sapiens, UniProt Q8TD19)
T24 construct: purchased Ambit Biosciences (San Diego, Calif.)
From the text: as §1

ERBB2 = target: T25, ERBB2 (Homo sapiens, UniProt P04626)
T25 construct: purchased Ambit Biosciences (San Diego, Calif.)
From the text: as §1

DMPK = target: T26, DMPK (Homo sapiens, UniProt Q09013)
T26 construct: purchased Ambit Biosciences (San Diego, Calif.)
T26 sequence (Q09013 whole entry): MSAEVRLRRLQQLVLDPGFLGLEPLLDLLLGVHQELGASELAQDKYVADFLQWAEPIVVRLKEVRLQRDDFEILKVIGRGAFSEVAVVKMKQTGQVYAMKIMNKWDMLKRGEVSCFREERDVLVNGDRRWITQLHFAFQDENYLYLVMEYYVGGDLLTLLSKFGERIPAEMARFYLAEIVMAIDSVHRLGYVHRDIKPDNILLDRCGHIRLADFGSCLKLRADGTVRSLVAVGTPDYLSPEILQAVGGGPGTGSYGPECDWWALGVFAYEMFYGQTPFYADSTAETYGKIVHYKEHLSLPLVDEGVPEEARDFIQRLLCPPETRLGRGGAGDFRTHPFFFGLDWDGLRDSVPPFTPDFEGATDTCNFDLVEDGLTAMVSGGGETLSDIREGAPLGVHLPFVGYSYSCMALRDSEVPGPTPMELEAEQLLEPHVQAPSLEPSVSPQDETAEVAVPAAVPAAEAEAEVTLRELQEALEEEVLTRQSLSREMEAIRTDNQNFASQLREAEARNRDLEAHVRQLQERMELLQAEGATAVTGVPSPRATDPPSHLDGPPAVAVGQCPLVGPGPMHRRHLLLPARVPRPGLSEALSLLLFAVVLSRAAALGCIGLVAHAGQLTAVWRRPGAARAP
From the text: as §1

EPHA5 = target: T27, EPHA5 (Homo sapiens, UniProt P54756)
T27 construct: purchased Ambit Biosciences (San Diego, Calif.)
From the text: as §1

AURKC = target: T28, AURKC (Homo sapiens, UniProt Q9UQB9)
T28 construct: purchased Ambit Biosciences (San Diego, Calif.)
From the text: as §1

CSK = target: T29, CSK (Homo sapiens, UniProt P41240)
T29 construct: purchased Ambit Biosciences (San Diego, Calif.)
From the text: as §1

TXK = target: T30, TXK (Homo sapiens, UniProt P42681)
T30 construct: purchased Ambit Biosciences
From the text: as §1

TNIK = target: T31, TNIK (Homo sapiens, UniProt Q9UKE5)
T31 construct: purchased Ambit Biosciences
From the text: as §1

PAK6 = target: T32, PAK6 (Homo sapiens, UniProt Q9NQU5)
T32 construct: purchased Ambit Biosciences (San Diego, Calif.)
From the text: as §1

STK16 = target: T33, STK16 (Homo sapiens, UniProt O75716)
T33 construct: purchased Ambit Biosciences
From the text: as §1

EPHA8 = target: T34, EPHA8 (Homo sapiens, UniProt P29322)
T34 construct: purchased Ambit Biosciences (San Diego, Calif.)
T34 sequence (P29322 28-1005): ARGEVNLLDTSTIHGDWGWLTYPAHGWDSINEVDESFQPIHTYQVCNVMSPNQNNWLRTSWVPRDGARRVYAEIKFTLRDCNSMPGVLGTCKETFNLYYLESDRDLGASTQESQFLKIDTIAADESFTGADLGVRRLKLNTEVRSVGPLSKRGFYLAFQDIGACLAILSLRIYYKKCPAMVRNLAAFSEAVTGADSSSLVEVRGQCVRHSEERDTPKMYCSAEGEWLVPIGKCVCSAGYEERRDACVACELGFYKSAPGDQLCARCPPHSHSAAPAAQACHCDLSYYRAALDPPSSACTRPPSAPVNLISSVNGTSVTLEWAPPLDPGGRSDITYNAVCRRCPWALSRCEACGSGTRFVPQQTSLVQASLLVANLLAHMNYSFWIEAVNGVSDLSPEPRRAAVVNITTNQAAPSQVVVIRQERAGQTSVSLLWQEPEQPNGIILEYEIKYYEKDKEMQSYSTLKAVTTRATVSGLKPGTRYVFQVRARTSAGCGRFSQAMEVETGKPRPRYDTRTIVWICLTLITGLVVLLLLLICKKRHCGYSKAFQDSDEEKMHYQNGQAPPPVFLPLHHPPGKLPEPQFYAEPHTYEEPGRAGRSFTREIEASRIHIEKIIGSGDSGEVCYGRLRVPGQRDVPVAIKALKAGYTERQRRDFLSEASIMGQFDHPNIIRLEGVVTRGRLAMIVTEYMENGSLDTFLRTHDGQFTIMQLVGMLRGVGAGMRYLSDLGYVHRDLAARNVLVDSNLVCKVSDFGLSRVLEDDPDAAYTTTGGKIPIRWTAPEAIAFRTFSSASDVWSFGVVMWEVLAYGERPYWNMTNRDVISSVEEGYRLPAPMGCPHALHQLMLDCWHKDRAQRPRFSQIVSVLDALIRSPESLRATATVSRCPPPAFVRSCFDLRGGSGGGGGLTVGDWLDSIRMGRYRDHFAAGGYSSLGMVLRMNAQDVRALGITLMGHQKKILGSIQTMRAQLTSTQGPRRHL
From the text: as §1

HCK = target: T35, HCK (Homo sapiens, UniProt P08631)
T35 construct: purchased Ambit Biosciences (San Diego, Calif.)
From the text: as §1

TRKA = target: T36, TRKA (Homo sapiens, UniProt P04629)
T36 construct: purchased Ambit Biosciences
T36 sequence (P04629 33-796): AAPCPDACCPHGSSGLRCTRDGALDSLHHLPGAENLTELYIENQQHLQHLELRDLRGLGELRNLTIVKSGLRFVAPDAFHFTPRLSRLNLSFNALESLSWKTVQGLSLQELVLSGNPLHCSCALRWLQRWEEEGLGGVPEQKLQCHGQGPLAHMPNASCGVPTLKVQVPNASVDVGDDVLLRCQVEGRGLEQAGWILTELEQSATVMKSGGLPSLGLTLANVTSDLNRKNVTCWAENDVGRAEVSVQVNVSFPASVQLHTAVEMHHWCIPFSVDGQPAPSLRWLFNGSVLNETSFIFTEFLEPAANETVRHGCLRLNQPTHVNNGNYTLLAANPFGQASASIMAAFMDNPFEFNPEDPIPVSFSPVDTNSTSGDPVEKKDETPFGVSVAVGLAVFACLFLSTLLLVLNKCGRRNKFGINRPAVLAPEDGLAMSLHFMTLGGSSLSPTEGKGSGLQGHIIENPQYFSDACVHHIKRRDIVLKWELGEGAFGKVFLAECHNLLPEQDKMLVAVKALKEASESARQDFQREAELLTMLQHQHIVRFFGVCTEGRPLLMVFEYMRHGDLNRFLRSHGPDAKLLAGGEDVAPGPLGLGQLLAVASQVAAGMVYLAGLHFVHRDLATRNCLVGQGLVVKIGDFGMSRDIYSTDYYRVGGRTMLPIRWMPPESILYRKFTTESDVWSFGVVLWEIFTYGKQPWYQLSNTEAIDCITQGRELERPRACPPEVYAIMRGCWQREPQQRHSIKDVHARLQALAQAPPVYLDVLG
From the text: as §1

STK11 = target: T37, STK11 (Homo sapiens, UniProt Q15831)
T37 construct: purchased Ambit Biosciences
From the text: as §1

SYK = target: T38, SYK (Homo sapiens, UniProt P43405)
T38 construct: purchased Ambit Biosciences
From the text: as §1

PHKG2 = target: T39, PHKG2 (Homo sapiens, UniProt P15735)
T39 construct: purchased Ambit Biosciences (San Diego, Calif.)
T39 sequence (P15735 whole entry): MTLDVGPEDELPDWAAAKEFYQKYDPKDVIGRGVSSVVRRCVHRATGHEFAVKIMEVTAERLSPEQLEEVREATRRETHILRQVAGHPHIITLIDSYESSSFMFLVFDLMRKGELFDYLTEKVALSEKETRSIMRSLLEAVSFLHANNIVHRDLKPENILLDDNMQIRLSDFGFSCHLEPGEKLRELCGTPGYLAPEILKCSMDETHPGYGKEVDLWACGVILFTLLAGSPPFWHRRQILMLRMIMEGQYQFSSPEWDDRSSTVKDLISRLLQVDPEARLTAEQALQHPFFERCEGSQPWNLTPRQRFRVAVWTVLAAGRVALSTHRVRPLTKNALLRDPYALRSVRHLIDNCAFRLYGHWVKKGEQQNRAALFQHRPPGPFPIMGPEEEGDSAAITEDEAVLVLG
From the text: as §1

FLT3 = target: T40, FLT3 (Homo sapiens, UniProt P36888)
T40 construct: purchased Ambit Biosciences (San Diego, Calif.)
From the text: as §1

Measured: inhibition at 10 µM

NC(=O)c1ccc(-c2nc(-c3ccc4c(c3)OCO4)c(-c3ccccn3)[nH]2)cc1 [SB431542, 4-(4-benzo-[1,3]dioxol-5-yl-5-pyridin-2-yl-1H-imidazol-2-yl)benzamide]
< 50%: CLK3 | TTK | PAK7/PAK5 | CLK4 | PDGFRA | GAK | CSNK1G1; 10 μM, CSNK1G1, read-out: % Inhibition | CAMKK1 | CSNK1G2; 10 μM, CSNK1G2, read-out: % Inhibition | FGFR1 | ACK1 | FLT4 | PAK1 | EGFR | CAMK2B | FRK | INSR | PIM2 | JAK1(Kin.Dom1) | ABL1 | STK17A | EPHA4 | PKMYT1 | NEK9 | ERBB2 | DMPK | EPHA5 | AURKC | CSK | TXK | TNIK | PAK6 | STK16 | EPHA8 | HCK | TRKA | STK11 | SYK | PHKG2 | FLT3

NC(=O)c1ccc(-c2nc(-c3ccc4c(c3)OCCO4)c(-c3ccccn3)[nH]2)cc1 [D4476, 4-[4-(2,3-Dihydro-benzo[1,4]dioxin-6-yl)-5-pyridin-2-yl-1H-imidazol-2-yl]benzamide]
< 50%: CLK3 | TTK | PAK7/PAK5 | CLK4 | PDGFRA | GAK | CSNK1G1 | CAMKK1 | CSNK1G2 | FGFR1 | ACK1 | FLT4 | PAK1 | EGFR | CAMK2B | FRK | INSR | PIM2 | JAK1(Kin.Dom1) | ABL1 | STK17A | EPHA4 | PKMYT1 | NEK9 | ERBB2 | DMPK | EPHA5 | AURKC | CSK | TXK | TNIK | PAK6 | STK16 | EPHA8 | HCK | TRKA | STK11 | SYK | PHKG2 | FLT3

Reference: patent publication US20080146617A1, “Methods of treating inflammatory diseases” (Roche Palo Alto LLC, priority 2006, published 2008)
